“And” between values parts separate entries of the source, which are not always exact repeats. Equal values may be shown once. Read-outs that look alike come from different tables or passages of the source.
Assays:
[1] = Fe3+-TPTZ complex reducing ability (absorbance 593 nm); details: 30 µg/mL; absorbance at 593 nm
Experimental: The Fe^3+-TPTZ complex reducing ability of Schiff bases (10–15) and hydrazineylidene derivatives (16 and 17) was realized according to a previous study. For this, 2.25 mL of TPTZ solution (10 mM in 40 mM HCl) was freshly prepared, then added to 2.5 mL of acetate buffer (0.3 M, pH 3.6) and 2.25 mL of FeCl3 solution (20 mM). Then, different concentrations of Schiff bases (10–15) and hydrazineylidene derivatives (16 and 17) were transferred and incubated at 37 °C for 30 min. Finally, the absorbance values of the reducing power of Schiff bases (10–15) and hydrazineylidene derivatives (16 and 17) and standards were spectrophotometrically measured at 593 nm.

[2] = biological target: T1, hCA I (Homo sapiens, UniProt P00915)
Source text: (§2) Both isoforms’ activity was spectrophotometrically determined according to the Verpoorte assay [47]. […] All experiments of the CA inhibition assay were repeated three times and the results are given as the arithmetic mean of these repetitions.

[3] = Fe3+ reducing ability (ferricyanide method, absorbance 700 nm); details: 30 µg/mL; absorbance at 700 nm
Experimental: The Fe^3+ reducing ability of Schiff bases (10–15) and hydrazineylidene derivatives (16 and 17) were tested according to our prior studies. For this purpose, various concentrations of compounds (10–17) were transferred into test tubes, and 2.5 mL of phosphate buffer (0.2 M, pH 6.6) and 2.5 mL (1%) of potassium ferricyanide [K3Fe(CN)6] solutions were added. Then, the mixture was vortexed and incubated at 50 °C for 20 min. A portion of trichloroacetic acid (2.5 mL, 10%) was added. Then, 2.5 mL of upper layers of the solutions were mixed with 2.5 mL distilled water and 0.5 mL FeCl3 (0.1%). The absorbance values of the reducing effects of compounds (10–17) and standards were spectrophotometrically recorded at 700 nm.

[4] = biological target: hCA II (Homo sapiens, UniProt P00918); test: hCA II inhibition, esterase assay (Verpoorte); assay type: biochemical
Source text: as §2

[5] = biological target: BChE (Homo sapiens, UniProt P06276); test: biochemical
Experimental: (§1) Acetylthiocholine iodide/butyrylthiocholine iodide (AChI)/BChI) and 5,5′-dithiobis(2-nitro-benzoic acid) (DTNB) were used as the substrate pattern for both cholinergic reactions. […] Then, the samples were incubated at 25 °C for 15 min, and 50 μL of DTNB solution (0.5 mM,) was transferred.

[6] = biological target: AChE (Homo sapiens, UniProt P22303); test: biochemical
Experimental: as §1

[7] = DPPH radical scavenging (Blois method); details: half maximal scavenging concentration
Experimental: DPPH· and ABTS^•+ scavenging methods are the most widely used spectrophotometric methods to determine the antioxidant capacity of newly synthesized compounds. The DPPH‧ scavenging effect of Schiff bases (10–15) and hydrazineylidene derivatives (16 and 17) was realized according to the Blois method. Briefly, 1 mL of DPPH^• solution (0.1 mM), which was prepared in ethanol and was a violet/purple color […], was added to the Schiff base (10–15) and hydrazineylidene derivative (16 and 17) samples at different concentrations (10–30 μg/mL). Then, they were incubated at room temperature for 30 min and their absorbance values were recorded at 517 nm.

[8] = biological target: T1, hCA I; test: biochemical
Source text: as §2

[9] = Cu2+ reducing ability (neocuproine method, absorbance 450 nm); details: 30 µg/mL; absorbance at 450 nm
Experimental: The Cu^2+ reducing ability of Schiff bases (10–15) and hydrazineylidene derivatives (16 and 17) were detected according to a prior study. For this purpose, 0.25 mL of CuCl2 solution (10 mM), 0.25 mL of ethanolic neocuproine solution (7.5 × 10^−3 M), and 250 μL of NH4Ac buffer solution (1.0 M) in different concentrations (10–30 μg/mL) were transferred to test tubes containing Schiff base (10–15) and hydrazineylidene derivative (16 and 17) samples. The total volume was made up to 2 mL with distilled water, and their absorbance values were recorded at 450 nm after 30 min of incubation.

[10] = ABTS radical cation scavenging
Experimental: The ABTS radical cation scavenging assay was used as a way to calculate antioxidant capacity based on this radical scavenging ability. Firstly, an aqueous solution of ABTS (7.0 mM) was oxidized by oxidants such as K2S2O8 (2.5 mM) for the production of its radical cation (ABTS^•+). […] Then, 1 mL of ABTS^•+ solution was added to 3 mL Schiff base (10–15) and hydrazineylidene derivative (16 and 17) solutions at different concentrations (10–30 μg/mL).

Sequence of BChE (P06276 29-602): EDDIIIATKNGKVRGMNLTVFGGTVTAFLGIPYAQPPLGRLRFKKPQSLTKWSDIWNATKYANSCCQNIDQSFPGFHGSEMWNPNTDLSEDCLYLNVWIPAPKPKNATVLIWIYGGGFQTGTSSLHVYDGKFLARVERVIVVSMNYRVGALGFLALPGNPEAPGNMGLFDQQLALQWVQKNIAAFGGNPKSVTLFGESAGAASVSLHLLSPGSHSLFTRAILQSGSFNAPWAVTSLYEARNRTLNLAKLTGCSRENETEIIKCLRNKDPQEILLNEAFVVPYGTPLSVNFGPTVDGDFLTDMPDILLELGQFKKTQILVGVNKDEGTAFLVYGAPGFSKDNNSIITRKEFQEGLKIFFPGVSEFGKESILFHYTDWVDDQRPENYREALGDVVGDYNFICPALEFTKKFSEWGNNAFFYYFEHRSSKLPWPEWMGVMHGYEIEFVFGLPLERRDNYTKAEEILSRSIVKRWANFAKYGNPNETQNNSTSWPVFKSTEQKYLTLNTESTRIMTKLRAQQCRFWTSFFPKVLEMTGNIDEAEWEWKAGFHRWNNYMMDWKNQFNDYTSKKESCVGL
Sequence of AChE (P22303 32-614): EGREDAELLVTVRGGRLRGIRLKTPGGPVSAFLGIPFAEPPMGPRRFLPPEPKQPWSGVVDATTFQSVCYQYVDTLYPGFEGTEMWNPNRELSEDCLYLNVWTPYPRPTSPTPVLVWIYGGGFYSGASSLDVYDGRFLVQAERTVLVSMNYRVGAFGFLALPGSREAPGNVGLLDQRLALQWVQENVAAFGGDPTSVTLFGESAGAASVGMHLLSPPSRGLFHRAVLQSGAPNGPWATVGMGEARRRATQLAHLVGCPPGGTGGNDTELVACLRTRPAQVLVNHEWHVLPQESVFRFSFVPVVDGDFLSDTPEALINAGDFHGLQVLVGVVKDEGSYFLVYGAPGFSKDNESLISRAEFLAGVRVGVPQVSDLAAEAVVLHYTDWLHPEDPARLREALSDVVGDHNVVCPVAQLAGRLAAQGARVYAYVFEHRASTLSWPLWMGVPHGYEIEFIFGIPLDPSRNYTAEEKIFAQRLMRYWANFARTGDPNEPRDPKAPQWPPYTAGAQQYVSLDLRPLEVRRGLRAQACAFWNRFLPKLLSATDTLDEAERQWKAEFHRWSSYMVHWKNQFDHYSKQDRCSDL
T1 sequence (P00915 whole entry): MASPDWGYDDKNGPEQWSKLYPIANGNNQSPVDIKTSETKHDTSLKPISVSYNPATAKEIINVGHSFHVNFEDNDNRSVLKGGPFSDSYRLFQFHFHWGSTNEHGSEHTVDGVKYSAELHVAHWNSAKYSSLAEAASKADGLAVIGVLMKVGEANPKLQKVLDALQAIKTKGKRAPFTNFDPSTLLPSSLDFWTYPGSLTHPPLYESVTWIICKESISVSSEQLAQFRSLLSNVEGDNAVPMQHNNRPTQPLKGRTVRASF

Row | Compound | Fe^3+-TPTZ Reducing λ593 [1] [absorbance] | Selectivity Index (hCA I/hCA II) [2] | Fe^3+ Reducing λ700 [3] [absorbance] | IC50 ([4]; read-out: IC50 hCA II) [nM] | IC50 ([5]; read-out: IC50 BChE) [nM] | Selectivity Index (AChE/BChE) [6] | IC50 ([6]; read-out: IC50 AChE) [nM] | DPPH^• Scavenging IC50 [7] | IC50 [8] [nM] | Ki [8] [nM] | Cu^2+ Reducing λ450 [9] [absorbance] | ABTS^•+ Scavenging IC50 [10] | Ki [4] [nM] | IC50 [4] [nM] | IC50 [5] [nM] | IC50 [6] [nM]
1 | COc1ccc(/C=N/c2ccc(N)cc2)cc1O [Compound 14, (E/Z)-5-(((4-Aminophenyl)imino)methyl)-2-methoxyphenol] | 2.074 ± 0.017 | 0.306 | 2.741 ± 0.026 | 69.3 | 38.5 | 0.900 | 34.6 | 13.86 µg/mL | 53.3 | 26.1 ± 8.53 | 1.970 ± 0.018 | 5.33 µg/mL | – | – | – | –
2 | COc1ccc(/C=N/c2ccc(Br)cc2)cc1O [Compound 13, (E)-5-(((4-Bromophenyl)imino)methyl)-2-methoxyphenol] | 0.701 ± 0.003 | 0.483 | 0.198 ± 0.004 | 77 | 28.9 | 0.615 | 17.8 | 87.721 µg/mL and 87.72 µg/mL | 63 | – | 0.875 ± 0.020 | 34.65 µg/mL | 67.6 ± 15.7 | – | – | –
3 | COc1ccc(/C=N/Nc2ccccc2)cc1O [Compound 17, (E)-2-Methoxy-5-((2-phenylhydrazineylidene)methyl)phenol] | 2.121 ± 0.014 | 0.247 | 2.391 ± 0.037 | 116 | 19.8 | 1.206 | 23.9 | 14.744 µg/mL and 14.74 µg/mL | 96.2 | – | 2.026 ± 0.016 | 4.304 µg/mL and 4.30 µg/mL | – | – | – | –
4 | COc1ccc(C=O)cc1O [Compound 1, Isovanillin] | 0.728 ± 0.020 | – | 0.244 ± 0.005 | – | – | 1.083 | – | 86.62 µg/mL | 139 | 112 ± 25.8 | 1.005 ± 0.009 | 12.15 µg/mL | – | 173 | 53.3 | 57.8
5 | NN=C(c1ccccc1)c1ccccc1 [Compound 8, benzophenone hydrazone] | – | – | – | – | – | – | – | – | – | – | 1.005 ± 0.009 | – | – | – | – | –
6 | COc1ccc(/C=N/N=C(c2ccccc2)c2ccccc2)cc1O [Compound 16, (E)-5-(((Diphenylmethylene)hydrazineylidene)methyl)-2-methoxyphenol] | 1.069 ± 0.057 | 0.326 | 0.311 ± 0.018 | 112 | 25.7 | 0.627 | 16.1 | 30.13 µg/mL | 69.3 | – | 1.266 ± 0.029 | 11.745 µg/mL and 11.74 µg/mL | – | – | – | –
7 | Cc1c(C)c2c(c(C)c1O)CC[C@@](C)(CCC[C@H](C)CCC[C@H](C)CCCC(C)C)O2 [α-Tocopherol, α-tocopherol, reference compound] | 1.763 ± 0.026 | – | 1.446 ± 0.009 | – | – | – | – | 10.043 µg/mL and 10.04 µg/mL | – | – | 1.923 ± 0.032 | 9.493 µg/mL and 9.49 µg/mL | – | – | – | –
8 | COc1ccc(/C=N/c2ccc(F)cc2)cc1O [Compound 12, (E)-5-(((4-Fluorophenyl)imino)methyl)-2-methoxyphenol] | 0.806 ± 0.003 | 0.424 | 0.294 ± 0.008 | 99 | 33 | 0.700 | 23.1 | 57.75 µg/mL | 61.9 | – | 0.951 ± 0.010 | 27.72 µg/mL | – | – | – | –
9 | COc1ccc(/C=N/c2ccccc2O)cc1O [Compound 11, (E)-5-(((2-Hydroxyphenyl)imino)methyl)-2-methoxyphenol] | 2.183 ± 0.016 | 0.730 | 2.591 ± 0.010 | 88.2 | 34.6 | 0.645 | 22.4 | 12.157 µg/mL and 12.15 µg/mL | 86.6 | – | 2.332 ± 0.018 | 4.386 µg/mL and 4.38 µg/mL | – | – | – | –
10 | COc1ccc(O)c(C(C)(C)C)c1 [BHA, butylated hydroxyanisole, reference compound] | 2.156 ± 0.005 | – | 2.448 ± 0.021 | – | – | – | – | 11.55 µg/mL | – | – | 2.268 ± 0.011 | 4.47 µg/mL | – | – | – | –
11 | Cc1cc(C(C)(C)C)c(O)c(C(C)(C)C)c1 [BHT, butylated hydroxytoluene, reference compound] | 2.037 ± 0.027 | – | 1.994 ± 0.033 | – | – | – | – | 13.326 µg/mL and 13.32 µg/mL | – | – | 2.149 ± 0.019 | 4.95 µg/mL | – | – | – | –
12 | COc1ccc(/C=N/c2ccc(N(C)C)cc2)cc1O [Compound 10, (E)-5-(((4-(Dimethylamino)phenyl)imino)methyl)-2-methoxyphenol] | 2.076 ± 0.004 | 0.372 | 2.827 ± 0.016 | 131 | 23.9 | 1.115 | 26.7 | 16.902 µg/mL and 16.90 µg/mL | 66 | – | 2.176 ± 0.044 | 14.437 µg/mL and 14.43 µg/mL | – | – | – | –
13 | Cc1c(C)c2c(c(C)c1O)CCC(C)(C(=O)O)O2 (centres unmarked) [Trolox, trolox, reference compound] | 2.051 ± 0.028 | – | 1.570 ± 0.016 | – | – | – | – | 12.157 µg/mL and 12.15 µg/mL | – | – | 1.174 ± 0.027 | 4.846 µg/mL and 4.84 µg/mL | – | – | – | –
14 | COc1ccc(/C=N/Cc2ccccc2)cc1O [Compound 15, (E)-5-((Benzylimino)methyl)-2-methoxyphenol] | 0.646 ± 0.034 | 0.521 | 0.363 ± 0.021 | 139 | 36.5 | 0.704 | 25.7 | 99.01 µg/mL | 99 | – | 0.803 ± 0.013 | 23.896 µg/mL and 23.89 µg/mL | – | – | – | –
